Here are results for two molecules from paper PMC11726677, “Eradication of Therapy-Resistant Cancer Stem Cells by Novel Telmisartan Derivatives” (Journal of Medicinal Chemistry, 2024).

Several values for one entry are separate records, joined by “and”; a condition that tells them apart may be missing. Equal values may be shown once.

The nature of data set [1]: Caco2 permeability (bidirectional). The conditions noted are these: human, Caco-2; Papp B–A/Papp A–B. It counts as in vitro ADME. The procedure: The medium was changed regularly and on day 20 the permeability study was performed. The monolayers were prepared by rinsing the apical and basolateral surfaces with Hanks Balanced Salt Solution (HBSS) twice at the desired pH and by incubating for 40 min to stabilize the physiological parameters. […] The compounds were diluted with buffer to a concentration of 10 μM (final DMSO concentration ≤1%) and added to the apical or basolateral sides of the cell monolayer. Compound permeability was assessed in duplicates and molecules of known permeability characteristics were used as controls (antipyrine, atenolol, talinolol, and estrone 3-sulfate). To calculate Papp, compound appearance was measured using LC–MS/MS. The efflux ratio was determined for bidirectional assays.
A general note: Caco-2 cells form a polarised layer with tight junctions and transporters.

Data set [2] relates to IGROV-1 SP cells. Put plainly: Chemosensitizing to paclitaxel: metabolic activity of IGROV-1 SP cells (MTT). The format is cell-based, human. To be noted: compound 10 μM + PTX 10 nM, 72 h. The procedure:
The chemosensitizing efficacy was investigated in the ovarian and prostate cancer cell lines using the above-described metabolic activity assay. Paclitaxel (PTX) served as a reference (CTR) in A2780 V SP and IGROV-1 SP cells and docetaxel (DTX) in PC3-DR and D145-DR cells.
COS-7 (2 × 10^3 cells per well), IGROV-1 SP (2.5 × 10^3 cells per well), A2780 V SP (1.5 × 10^3 cells per well), PC3-DR (4 × 10^3 cells per well), and DU145-DR (3 × 10^3 cells per well) cells were seeded in 96-well plates in triplicates and after 24 h, the compounds were added at the respective concentrations. K562-R and K562 cells (2 × 10^4 cells per well), were treated with the compounds 2 h after seeding. […] A modified MTT colorimetric assay (EZ4U kit, Biomedica) was used to determine the metabolic activity of the tested cells, according to the manufacturer’s instructions. Absorbance was measured and the optical density of the respective FCS-containing medium and of the substrate was subtracted to exclude nonspecific staining. Metabolic activity in the absence of the compounds (CTR, DMSO) was set to 100% as reference.

For data set [3], the system named is MCF7 cells (ABCG2+). Description: SP analysis (DCV, flow cytometry) in MCF7 cells. The conditions noted are these: MCF7, 10 μM. It counts as cell-based, human. From the text:
In recent studies, we described the side population (SP) phenotype as a marker that defines a heterogeneous cellular compartment with stem cell-characteristics in various cancer cell lines derived from solid tumors, such as ovarian cancer, breast cancer, and lung cancer.[26],[27]

Data set [4] has as its system K562-R cells. Put plainly: Cellular imatinib accumulation assay (U(H)PLC-SIM-MS). It counts as cell-based, human. To be noted: preincubated 1 h with 10 μM compound, then 1 μM imatinib 2 h. As for the experimental part: After treatment, cells were washed, and the resulting cell pellets were lysed in 200 μL of ice-cold methanol. Lysates were incubated on a tube shaker (Thermomixer C, Eppendorf) for 20 min at 4 °C and 1400 rpm, followed by centrifugation (MicroStar 17R, VWR) at 16000g for 5 min at 4 °C. 180 μL of supernatants were separated from the sediment and dried in a rotary vacuum evaporator (Concentrator plus, Eppendorf) and stored at −80 °C until analysis.
Metabolites were separated using the following gradient: 1% B for 0.2 min, 1% B to 70% B within 0.6 min, 70% B to 90% B within 0.2 min, 90% B for 0.3 min. The UPLC system was coupled to a quadrupole orbitrap mass spectrometer (Exploris 480, Thermo Fischer Scientific) via a HESI electrospray source. […] The spray voltage was set to 3500 V and the ion transfer tube and vaporizer temperatures were set at 350 °C. Sheath gas was used at a flow rate of 60 (arbitrary units (a.u)) and auxiliary gas at a flow rate of 15 (a.u)).
Raw data processing was performed using TraceFinder General Quan 5.0 (Thermo Scientific, San Jose, CA, USA). The ICIS algorithm was used for peak identification and integration with the following parameters Peak detection strategy: Highest peak; Peak threshold type: Area; Threshold: 1; Smoothing: 3; S/N threshold: 3; Tailing Factor: 8. Peaks were manually adjusted when necessary. […]

The subject of data set [5] is STAT5. Description: Jess Simple Western immunoassay of STAT5/pSTAT5 in IGROV-1 SP cells. It counts as cell-based, human. To be noted: IGROV-1 SP, 10 μM, 72 h. The procedure:
The impact of STAT5 activation on the mode of action was investigated in selected solid tumor cell lines as well.
Protein extracts were prepared as previously described.[44] Protein expression was determined using the capillary-based Jess Simple Western detection system (ProteinSimple, BioTechne) according to the manufacturer’s instructions at default settings. […] Horseradish peroxidase (HRP)-conjugated secondary antirabbit antibody, which was included in the Jess Detection Module kit, was used. Data analysis was conducted using Compass for Simple Western 4.0 software (ProteinSimple, BioTechne).

A short description of data set [6]: Body weight / tolerability in the K562-R xenograft study. The conditions noted are these: for Body Weight, individual animal / Body Weight, group mean: PO QD x 30 days (imatinib 50 mg/kg, 7c 10 mg/kg); for Body Weight, individual animal: animals No. 1–7; for Body Weight, group mean: n = 7.

As for `CCCc1nc2c(C)cc(-c3nc4ccccc4n3C)cc2n1Cc1ccc(-c2ccccc2C(=O)OC)cc1` [7b, Methyl 4′-((1,7′-dimethyl-2′-propyl-1H,3′H-[2,5′-bibenzo[d]imidazole]-3′-yl)methyl)-[1,1′-biphenyl]-2-carboxylate], the efflux ratio (usually a quotient of directional permeabilities that is used to spot active efflux) at 10 µM in data set [1] was 1.24. The “viability / antimetabolic effect in combination with PTX” value in data set [2] was “inactive”. Further, in data set [3], the “effect on SP phenotype” value was “eliminated the SP phenotype”. Further, the “intracellular accumulation of imatinib” value in data set [4] is “notably restored”. In addition, the “phosphorylation status of STAT5” value in data set [5] is “practically did not suppress pSTAT5”.

For `CCCc1nc2c(C)cc(-c3nc4ccccc4n3C)cc2n1Cc1ccc(-c2ccccc2C(N)=O)cc1` [7c, 4′-((1,7′-Dimethyl-2′-propyl-1H,3′H-[2,5′-bibenzo[d]imidazole]-3′-yl)methyl)-[1,1′-biphenyl]-2-carboxamide], the tolerability entry in data set [6] (7c 10 mg/kg, imatinib 50 mg/kg, PO QD × 30 days) was “well tolerated”. Besides, the “Body Weight, individual animal” value in data set [6] (Day 1) was 23 g and 25 g and 26 g and 21 g; in data set [6] (Day 5), 23 g and 24 g and 25 g and 26 g and 21 g; in data set [6] (Day 8), 23 g and 22 g and 26 g and 28 g and 24 g; in data set [6] (Day 12) it was 23 g and 22 g and 25 g and 27 g and 24 g; in data set [6] (Day 15), 23 g and 22 g and 25 g and 27 g and 21 g; in data set [6] (Day 19) it was 23 g and 25 g and 22 g and 28 g. The “Body Weight, individual animal” value in data set [6] (Day 22) is 24 g and 25 g and 23 g and 27 g and 22 g; in data set [6] (Day 26), 25 g and 26 g and 22 g and 27 g and 23 g; in data set [6] (Day 29), 23 g and 26 g and 21 g and 28 g and 24 g and 22 g; in data set [6] (Day 33) it was 24 g and 27 g and 22 g and 26 g and 28 g and 23 g. The “Body Weight, group mean” value in data set [6] (Day 1) was 24.1 g; in data set [6] (Day 8) it was 24.0 g; in data set [6] (Day 15), 23.4 g; in data set [6] (Day 22), 24.1 g; in data set [6] (Day 33), 25.1 g. In addition, the “effect on SP phenotype” value in data set [3] is reported as “eliminated the SP phenotype”. Moreover, the “intracellular accumulation of imatinib” value in data set [4] is reported as “notably restored”.
